Reference: patent US20080269053A1, “Amino Acid Compositions and Methods of Using as Fertilizer” (priority 2007, published 2008)

Key:
Kentucky blue grass = experiment: Turfgrass quality rating, Kentucky blue grass lawns; format: in vivo, Poa pratensis; details: 1.0 lb nitrogen per 1000 sq ft per month
Experimental: Kentucky blue grass is often used as a turfgrass species in the cool, temperature zone as a blend of varieties or within specialized “mixes” created for various geographical locations. In this embodiment, Kentucky blue grass was fertilized under a normal application rate of 1.0 lb nitrogen per 1000 sq ft per month in high quality, high maintenance lawns. Turfgrass quality and toxicity were measured on a 1-9 visual basis with 9 representing the highest quality turf or the most injury, respectively.

Bermuda grass [1] = experiment: Burn after true foliar application, Bermuda grass fairways; format: in vivo, Cynodon spp.
From the text: (§1) True foliar applications were studied with Tall Fescue grass. Normal foliar rates of 0.5, 1.0 and 3.0 lb nitrogen per 1000 sq ft were used with water volumes in the range of 0.5 to 2.0 gallons per 1000 sq ft (for comparison non-foliar, normal liquid spray applications are typically more than 4.0 gallons of water per 1000 sq ft.) Results are presented in FIG. 15 for mean data taken during a 5 week period. […] However, as true application rates are ⅛ the 1× rate, burn potential for foliar applications is limited.
(§2) True foliar applications were studied with Bermuda grass in Fairways at the rates used in EXAMPLE 9. Results for mean data averaged over seven weeks for burn rate and turfgrass quality are presented in FIGS. 17 and 18, respectively. […] Lysine HCl had 3-5% burn levels depending upon the rate of application.

Ultra-Dwarf Bermudagrass = experiment: Turfgrass quality rating, Ultra-Dwarf Bermudagrass golf greens; format: in vivo, Cynodon spp.; details: normal 0.125 lb nitrogen/week rate
From the text: Ultra-dwarf bermudagrass is typically mown at ⅛ inch or lower and fertilized on a weekly basis which is termed “spoon feeding”. Lysine HCl, liquid lysine, Milogranite and urea were applied under substantially the same conditions as described in Example 1. Overall turf quality was rated weekly using a visual scale of 1-9 with 9 representing perfect turf. Ratings higher than 6.0 are considered acceptable while any rating below 6.0 is unacceptable.

St. Augustine grass = experiment: Turfgrass quality rating, St. Augustine grass fertilized monthly; format: in vivo, Stenotaphrum secundatum
From the text: St. Augustine grass was fertilized monthly at rates of between 0.5 and 3.0 lbs nitrogen/1000 square feet with lysine HCL and Liquid Lysine, which were compared with inorganic, quick release/response urea and the organic industry standard Milorganite. Urea, lysine HCl, and liquid lysine were spray/liquid applied, while Milorganite was applied as a solid granular product.
Overall turf quality was rated weekly using a visual scale of 1-9 with 9 representing perfect turf. Ratings higher than 6.0 are considered acceptable, while any rating below 6.0 is unacceptable.

Creeping bentgrass [2] = experiment: Turfgrass quality rating, creeping bentgrass greens; format: in vivo, Agrostis; details: creeping bentgrass greens, 0.063, 0.125 and 0.25 lbs nitrogen/1000 sq ft bi-weekly
Experimental: (§3) Creeping bentgrass is a major choice for fairways, golf greens and tees in the cool-temperate zone. It has the ability to withstand close mowing and is very “aggressive” allowing for quick recovery from injuries. It was fertilized in greens at half, full and […] rate of application (0.063, 0.125 and 0.25 lbs nitrogen/1000 sq ft) on a bi-weekly basis. Turfgrass quality and toxicity were measured on a 1-9 visual basis, with 9 representing the highest quality turf or the most injury respectively. Fairways toxicity ratings and turfgrass quality ratings are shown in FIGS. 12 and 13, respectively.

Creeping bentgrass [3] = experiment: Phytotoxicity rating, creeping bentgrass fairways; format: in vivo, Agrostis
From the text: Creeping bentgrass is a major choice for fairways, golf greens and tees in the cool-temperate zone. It has the ability to withstand close mowing and is very “aggressive” which allows for quick recovery from injuries. Creeping bentgrass was fertilized in Fairways substantially the same as described in example 1 at three different rates: half, full and 3× normal rates (0.5, 1.0 and 3.0 lbs nitrogen/1000/month) applied on a monthly basis. Turfgrass quality ratings were taken every month from June through November along with “color” and “phytotoxicity” ratings. Turfgrass quality and toxicity were measured on a 1-9 visual basis with 9 representing the highest quality turf or most injury/burn to the turfgrass. Fairways toxicity ratings and turfgrass quality ratings are shown in FIGS. 10 and 11, respectively. The most crucial months with regard to fertilizer application toxicity are the mid-summer months of July and August due to hotter and more humid conditions which typically amplify any potential for fertilizer “burn” injury.

Creeping bentgrass [4] = experiment: Turfgrass quality after true foliar application, creeping bentgrass greens and tees; format: in vivo, Agrostis; details: averaged over six weeks
From the text: as §1
True foliar applications were studied with creeping bentgrass on greens and tees at the rates used in Example 9.

Bermudagrass = experiment: Turfgrass quality rating, Bermudagrass in golf course fairway conditions; format: in vivo, Cynodon spp.; details: monthly 0.5-3.0 lbs nitrogen/1000 sq ft
Experimental: Bermudagrass was grown and maintained in golf course fairway conditions. The bermudagrass was mown at a ½ inch height of cut and fertilized monthly between 0.5 and 3.0 lbs nitrogen per 1000 square feet. Lysine HCL and liquid lysine in aqueous solutions were compared with inorganic, quick release/response urea and the organic industry standard Milorganite. Urea, lysine HCl and liquid lysine were spray/liquid applied, while Milorganite was applied as a solid granular product.
Overall turf quality was rated weekly using a visual scale of 1-9 with 9 representing perfect turf (rarely attained, if ever). Ratings higher than 6.0 are considered acceptable while any rating below 6.0 is considered unacceptable. […] All fertilizers responded with acceptable turf ratings at all application rates, but lysine HCL trended better.
Bermudagrass was grown and maintained in golf course fairway conditions. The bermudagrass was mown at a ½ inch height of cut and fertilized monthly between 0.5 and 3.0 lbs nitrogen per 1000 square feet. Lysine HCl applied as a solid granular was compared with inorganic, quick release/response urea and the organic industry standard Milorganite. Urea was spray/liquid applied, while Milorganite was applied as a solid granular product.
Lysine HCL was applied as a solid granular to compare with spray applied lysine HCL and liquid lysine. […]

Creeping bentgrass [5] = experiment: Phytotoxicity rating, creeping bentgrass greens; format: in vivo, Agrostis; details: bi-weekly application
Experimental: as §3

Bermuda grass [6] = experiment: Turfgrass quality after true foliar application, Bermuda grass fairways; format: in vivo, Cynodon spp.; details: mean over seven weeks
From the text: as §1, §2

Solubility in water = format: physicochemical; details: 25° C., read-out: solubility in H2O

Structure (SMILES)	turfgrass quality (Kentucky blue grass)	burn level (Bermuda grass [1]; depending upon rate of application, mean over seven weeks)	burn potential (Bermuda grass [1]; turfgrasses recover quickly)	overall turf quality performance (Ultra-Dwarf Bermudagrass)	overall turfgrass quality and residual activity (St. Augustine grass; half-rate of 0.5 lb nitrogen, ratings higher than 6.0 acceptable)	overall turfgrass quality (visual scale 1-9) (St. Augustine grass; monthly 0.5-3.0 lbs nitrogen/1000 sq ft, spray applied, growing season, versus urea and Milorganite)	overall turfgrass quality rating (St. Augustine grass; standard 1.0 lb nitrogen rate, compared to urea and milorganite)	turfgrass quality rating (Creeping bentgrass [2])	phytotoxicity (injury) rating, visual 1-9 (Creeping bentgrass [3]; July)	turfgrass quality rating (Creeping bentgrass [4])	overall turf quality (visual scale 1-9) (Bermudagrass; applied as solid granular)	total seasonal turfgrass quality (visual scale 1-9) (Bermudagrass; aqueous spray applied)	toxicity rating, visual 1-9 (Creeping bentgrass [5]; June and July)	turfgrass quality rating (Bermuda grass [6])	solubility (Solubility in water) [mg/mL]	phytotoxicity (injury) rating, visual 1-9 (Creeping bentgrass [3]; August)	toxicity rating, visual 1-9 (Creeping bentgrass [5]; August)
Cl.NCCCC[C@H](N)C(=O)O [lysine HCl, lysine monohydrochloride]	marginally better than urea	3-5%	high burn potential	statistically the same as that of urea	acceptable overall turfgrass quality and residual activity	trended better than urea and milorganite	noticeably higher	slightly better than the blended synthetic products and Milogranite	insignificant level of injury	statistically equal qualities as Coron	as effective as or more effective than Milorganite and urea	seasonally better turfgrass quality at all rates tested compared to urea and milorganite	Slight and insignificant levels of toxicity	better than Coron and control plots	500 to 600	–	–
NC(N)=O [urea, reference compound]	–	–	–	–	–	–	–	–	–	–	–	–	–	–	–	significantly more injury than liquid lysine and lysine HCl	significantly higher toxicity levels
